The subject of assay [1] is oxazolone-induced skin inflammation. The assay can be described thus: Murine model of contact hypersensitivity (oxazolone ear inflammation), topical. It is filed as in vivo, Albino male CD-1 mice. As to conditions: 1 mg/ml, 20 μl to left ear 1 hour after oxazolone challenge; ear biopsy weight at 24 hours.
The test system of assay [2] is acetic acid-induced writhes. Briefly: Acetic acid-induced writhing, oral administration. It is filed as in vivo, Albino male CD-1 mice. The conditions noted are these: 100 mg/kg orally 1 hour prior to i.p. acetic acid. As to the method:
In this example, galvanic particulates produced by the process of Example 1 were evaluated for analgesic activity. Aspirin, a non-steroidal analgesic agent, which is known to show efficacy in this model, was included as a reference compound. Albino male CD-1 mice, weighing 24±2 g were used in the study. Galvanic particulates or aspirin were prepared in deionized water (DI Water) and were administered orally at a concentration of 100 mg/kg to mice 1 hour prior to injection of acetic acid. A […] of a 0.5% acetic acid solution was injected intraperitoneally, and the number of acetic acid-induced writhes were counted by an observer blinded to the treatment groups. A 50% decrease in the number of writhes indicated analgesic activity.
In general terms: An intraperitoneal irritant provokes the stretching counted in writhing tests.

`C[C@]12CCC(=O)C=C1CC[C@@H]1[C@@H]2[C@@H](O)C[C@@]2(C)[C@H]1CC[C@]2(O)C(=O)CO` [Hydrocortisone]: the “Percent Inhibition of Skin Inflammation” value in assay [1] is given as 70.3% ± 6.6%. `CC(=O)Oc1ccccc1C(=O)O` [Aspirin]: the “Analgesic Effectiveness (Percent Reduction Writhes)” value in assay [2] worked out at 56%. In addition, the “Total Number of Writhes (Mean ± Std Dev)” value in assay [2] (vehicle 11.4 ± 6.1) was 5.0 ± 3.6.

The record behind these values is patent US20120148633A1, “BINARY AND TERTIARY GALVANIC PARTICULATES AND METHODS OF MANUFACTURING AND USE THEREOF” (priority 2009, published 2012).
